Data on 26 compounds can be found in ChEMBL document CHEMBL1143193, “A new family of H3 receptor antagonists based on the natural product Conessine” (Bioorg Med Chem Lett, 2008).

Activity calls are given as the source filed them.

For one series, the target named is Histamine H3 receptor (Rattus norvegicus, UniProt Q9QYN8). Nature of the series: Displacement of N-[3H]methylhistamine from histamine H3 receptor in rat cortex.
Series [1] is filed under the species Homo sapiens. Nature of the series: Selectivity for human histamine H3 receptor over human histamine H1 receptor.
For series [2], the species on record is Homo sapiens. Description: Selectivity for human histamine H3 receptor over human histamine H2 receptor.
Series [3] is filed under the species Homo sapiens. Description: Selectivity for human histamine H3 receptor over human histamine H4 receptor.
A short description of series [4]: Oral bioavailability in rat. The format is ADME, organism-based. As to conditions: in vivo.
Series [5] in a line: Half life in rat. The format is ADME, organism-based. As to conditions: in vivo.
The species entered for another series is Rattus norvegicus. Nature of the series: Inhibition of R-alpha-methylhistamine-induced drinking response in rat dipsogenia model. The series is classed as functional.
Series [6] has as its target Histamine H3 receptor (Rattus norvegicus) (UniProt Q9QYN8). Description: Displacement of N-[3H]methylhistamine from histamine H3 receptor in rat cortex at < 5 uM.

Histamine H3 receptor, sequence (Q9QYN8 whole entry): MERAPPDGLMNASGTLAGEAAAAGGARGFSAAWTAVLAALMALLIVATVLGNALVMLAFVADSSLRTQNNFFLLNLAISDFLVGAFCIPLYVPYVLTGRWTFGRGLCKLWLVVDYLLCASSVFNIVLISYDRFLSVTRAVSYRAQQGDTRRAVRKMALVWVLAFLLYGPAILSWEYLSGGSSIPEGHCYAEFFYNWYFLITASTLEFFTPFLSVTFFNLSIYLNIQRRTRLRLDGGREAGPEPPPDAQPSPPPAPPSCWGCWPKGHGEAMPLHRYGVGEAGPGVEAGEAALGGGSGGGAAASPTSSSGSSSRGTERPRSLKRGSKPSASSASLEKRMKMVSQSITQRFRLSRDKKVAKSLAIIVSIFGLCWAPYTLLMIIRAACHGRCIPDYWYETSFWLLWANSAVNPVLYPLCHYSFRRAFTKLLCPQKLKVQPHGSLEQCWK
Histamine H3 receptor (Rattus norvegicus), sequence (Q9QYN8 whole entry): as above

Broadly, the Ki is a dissociation constant, usually derived from enzyme kinetics or from competition with a known ligand. As usually defined, the bioavailability is the share of a dose that reaches the circulation, judged against a reference dose that is usually intravenous. Lower therefore signals poor availability. By half-life is commonly meant the time needed for the level to fall by half in the phase considered. Lower therefore signals fast loss. `C1=C(c2ccc(CCN3CCCC3)cc2)[C@@H]2CN(CC3CC3)C[C@@H]2C1`: the Ki at Histamine H3 receptor (read-out: Ki) stood at 0.07 nM. The Selectivity ratio in the series filed under Homo sapiens [1], in the series listed under Homo sapiens [2] and in the series listed under Homo sapiens [3] was above 1000 throughout. In series [4], this compound gave a bioavailability of 78%. Besides, the half-life in series [5] is 6 h. Besides, the Activity entry in the series filed under Rattus norvegicus was “Dose-dependent effect”. For the same compound, the minimal effective dose in the series filed under Rattus norvegicus (read-out: MED) is 3 mg/kg.

Consider `CC(C)N1C[C@@H]2CC=C(c3ccc(CCN4CCCC4)cc3)[C@@H]2C1`, for which, at Histamine H3 receptor (read-out: Ki), the Ki came out at 0.29 nM.

As to `C1=C(c2ccc(CCN3CCCC3)cc2)C2CN(Cc3ccccc3)CC2C1` (stereo not drawn), the Ki on Histamine H3 receptor (read-out: Ki) is 0.3 nM.

Consider `CC(C)N1CC2CC=C(c3ccc(CCN4CCCC4)cc3)C2C1` (racemic), for which the Ki on Histamine H3 receptor (read-out: Ki) was found to be 0.9 nM.

For `C1=C(c2ccc(CCN3CCCC3)cc2)C2CN(c3ccccn3)CC2C1` (stereo not drawn), on Histamine H3 receptor (read-out: Ki), the Ki was 2 nM.

Take `C1=C(c2ccc(CCN3CCCC3)cc2)[C@@H]2CN(Cc3ccccc3)C[C@@H]2C1`: the Ki at Histamine H3 receptor (read-out: Ki) amounted to 0.05 nM. Moreover, the Selectivity ratio in the series filed under Homo sapiens [1], in the series listed under Homo sapiens [2] and in the series filed under Homo sapiens [3] was above 1000 in each case.

As to `C1=C(c2ccc(CCN3CCCC3)cc2)C2CN(CC3CC3)CC2C1` (racemic), the inhibitory constant (Ki) on Histamine H3 receptor (read-out: Ki) is 0.1 nM; at Histamine H3 receptor (read-out: Log Ki (converted)), 0.112 nM.

Consider `C1=C(c2ccc(CCN3CCCC3)cc2)C2CN(c3ccccc3)CC2C1` (stereo not drawn), for which the Ki at Histamine H3 receptor (read-out: Ki) was 67 nM.

On to `C1=C(c2ccc(CCN3CCc4ccccc43)cc2)C2CN(Cc3ccccc3)CC2C1` (stereo not drawn), for which the outcome in series [6] was inactive.

With `OC[C@@H]1CCCN1CCc1ccc(C2=CCC3CN(Cc4ccccc4)CC23)cc1` (stereo partly drawn), at Histamine H3 receptor (read-out: Ki), the Ki worked out at 0.16 nM.

Turning to `CN(C)CCc1ccc(C2=CCC3CN(Cc4ccccc4)CC23)cc1` (stereo not drawn), the Ki on Histamine H3 receptor (read-out: Ki) was found to be 2.3 nM.

`C1=C(c2ccc(CCN3CCCC3)cc2)C2CN(c3cncnc3)CC2C1` (stereo not drawn): the Ki on Histamine H3 receptor (read-out: Ki) was 7 nM.

With `C1=C(c2ccc(CCN3CCCC3)cc2)[C@H]2CN(Cc3ccccc3)C[C@H]2C1`, the Ki on Histamine H3 receptor (read-out: Ki) was found to be 0.75 nM.

Take `C1=C(c2ccc(CCN3CCCC3)cc2)[C@@H]2CN(C3CCCC3)C[C@@H]2C1`: the Ki at Histamine H3 receptor (read-out: Ki) was 0.08 nM.

`CC1CCCN1CCc1ccc(C2=CCC3CN(Cc4ccccc4)CC23)cc1` (stereo not drawn): the Ki on Histamine H3 receptor (read-out: Ki) came out at 0.05 nM.

As for `C1=C(c2ccc(CCN3CCC3)cc2)C2CN(Cc3ccccc3)CC2C1` (stereo not drawn), the Ki at Histamine H3 receptor (read-out: Ki) was found to be 2.4 nM.

Take `C1=C(c2ccc(CCN3CCCC3)cc2)C2CN(C3CCCC3)CC2C1` (racemic): the Ki at Histamine H3 receptor (read-out: Ki) was 0.4 nM.

In the case of `C1=C(c2ccc(CCN3CCOCC3)cc2)C2CN(Cc3ccccc3)CC2C1` (stereo not drawn), the Ki at Histamine H3 receptor (read-out: Ki) amounted to 1.7 nM.

As to `FC1(F)CCN(CCc2ccc(C3=CCC4CN(Cc5ccccc5)CC34)cc2)C1` (stereo not drawn), the inhibition constant (Ki) at Histamine H3 receptor (read-out: Ki) amounted to 2.8 nM.

`O=C1CCCN1CCc1ccc(C2=CCC3CN(Cc4ccccc4)CC23)cc1` (stereo not drawn): the Ki on Histamine H3 receptor (read-out: Ki) is 310 nM; on Histamine H3 receptor (read-out: Log Ki (converted)), 132 nM.

With `OC[C@H]1CCCN1CCc1ccc(C2=CCC3CN(Cc4ccccc4)CC23)cc1` (stereo partly drawn), on Histamine H3 receptor (read-out: Ki), the Ki was 0.51 nM.

For `C1=C(c2ccc(CCN3Cc4ccccc4C3)cc2)C2CN(Cc3ccccc3)CC2C1` (stereo not drawn), on Histamine H3 receptor (read-out: Ki), the Ki worked out at 256 nM.

`CN1CCN(CCc2ccc(C3=CCC4CN(Cc5ccccc5)CC34)cc2)CC1` (stereo not drawn): the inhibition constant Ki at Histamine H3 receptor (read-out: Ki) came to 58 nM.

For the compound `C1=C(c2ccc(CCN3CCCCC3)cc2)C2CN(Cc3ccccc3)CC2C1` (stereo not drawn), the Ki at Histamine H3 receptor (read-out: Ki) was 0.4 nM.

As to `C1=C(c2ccc(CCN3CCCC3)cc2)C2CN(c3ncccn3)CC2C1` (stereo not drawn), the inhibitory constant (Ki) at Histamine H3 receptor (read-out: Ki) was found to be 36 nM.

For the compound `C[C@H]1[C@H]2CC[C@H]3[C@@H]4CC=C5C[C@@H](N(C)C)CC[C@]5(C)[C@H]4CC[C@]23CN1C` [CONESSINE], the Ki on Histamine H3 receptor (read-out: Ki) came to 66 nM.
